ChEMBL document CHEMBL1201862, “PubChem BioAssay data set” (2004)
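Growth conditions: 96-well plates. Treatment: test compound, 48 hours, 5 concentrations. Analysis: linear interpolation between bracketing concentrations; unreached endpoints set to highest concentration. Abbreviation: GI50, concentration required for 50% inhibition of growth.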 The source made the active and inactive calls. Rule as the data show it: active = GI50 up to about 1.1 µM and inactive = higher.

Columns and labels:
Experiment in all cases: DTP human tumour cell line panel, 48 h
[1] = system: MOLT-4
[2] = system: HCT-15
[3] = system: OVCAR-4
[4] = system: NCI-H226
[5] = system: NCI-H460
[6] = system: A498
[7] = system: HOP-62
[8] = system: NCI-H522
[9] = system: COLO 205
[10] = system: SF-539
[11] = system: HOP-92
[12] = system: SNB-19
[13] = system: Malme-3M
[14] = system: PC-3
[15] = system: UACC-62
[16] = system: HL-60
[17] = system: RXF 393
[18] = system: 786-0
[19] = system: SK-OV-3
[20] = system: Hs-578T
[21] = system: HCT-116
[22] = system: SN12C
[23] = system: SK-MEL-28
[24] = system: OVCAR-3
[25] = system: U-251
[26] = system: MCF7
[27] = system: SR
[28] = system: OVCAR-5
[29] = system: IGROV-1
[30] = system: HCC 2998
[31] = system: T47D
[32] = system: TK-10
[33] = system: CAKI-1
[34] = system: KM12
[35] = system: NCI/ADR-RES
[36] = system: EKVX
[37] = system: SNB-75
[38] = system: A549
[39] = system: HT-29
[40] = system: CCRF-CEM
[41] = system: SF-268
[42] = system: SW-620
[43] = system: OVCAR-8
[44] = system: NCI-H23
[45] = system: SK-MEL-2
[46] = system: LOX IMVI
[47] = system: SK-MEL-5
[48] = system: UACC-257
[49] = system: ACHN
[50] = system: MDA-MB-435
[51] = system: MDA-N
[52] = system: DU-145
[53] = system: SF-295
[54] = system: M14
[55] = system: K562
[56] = system: UO-31
[57] = system: BT-549
[58] = system: MDA-MB-231
[59] = system: RPMI-8226

Measured: GI50

Cc1cc(=O)c2ccccc2n1CCCCCCCCCCn1c(C)cc(=O)c2ccccc21
inactive: [1] 8.69 µM | [3] 15.4 µM | [4] 20.5 µM | [5] 15.7 µM | [6] 15.1 µM | [7] > 100 µM | [8] 14.4 µM | [9] 21.9 µM | [10] 25.8 µM | [11] 22.4 µM | [12] 18.1 µM | [13] 15.7 µM | [14] 28.8 µM | [15] 17.1 µM | [16] 4.38 µM | [17] 26.1 µM | [18] 16.4 µM | [19] 19.3 µM | [20] 23.8 µM | [21] 8.09 µM | [22] 21.4 µM | [23] 20.8 µM | [24] 37.3 µM | [25] 15.6 µM | [26] > 10 µM | [27] 13.2 µM | [28] > 100 µM | [29] 17.2 µM | [30] 11.8 µM | [31] 16.3 µM | [32] 14.1 µM | [33] 21.6 µM | [34] 15.9 µM | [35] 16.6 µM | [36] 11.7 µM | [37] 30.2 µM | [38] 20 µM | [39] 15.9 µM | [40] 12.1 µM | [41] 30.2 µM | [42] 20.4 µM | [43] 16.8 µM | [44] 3.94 µM | [45] > 10 µM | [46] 5.53 µM | [48] 11.7 µM | [49] 25.2 µM | [50] 14.8 µM | [51] 17.5 µM | [52] 14 µM | [53] > 10 µM | [54] 34.9 µM | [55] 4.68 µM | [56] 12 µM | [57] 11 µM | [58] 29.5 µM
31.3 µM: [2]
active: [47] 0.64 µM

NC(=O)SCC(=O)Nc1ccc2cccc3c2c1CC3
inactive: [1] 19.8 µM | [3] 17.3 µM | [6] 91 µM | [7] 52.1 µM | [8] > 100 µM | [9] > 100 µM | [10] 15.1 µM | [12] 99.3 µM | [13] > 100 µM | [14] 4.4 µM | [15] 13.7 µM | [16] 3.9 µM | [17] 26 µM | [18] 18.9 µM | [20] 47.6 µM | [21] 15.5 µM | [22] 21.5 µM | [23] > 10 µM | [24] 31.6 µM | [25] 5.33 µM | [26] 11 µM | [27] 8.71 µM | [28] 17.7 µM | [29] > 100 µM | [30] 62.1 µM | [31] 21.9 µM | [59] 20.9 µM | [32] 27.9 µM | [33] 42.1 µM | [34] 36.7 µM | [35] 42.6 µM | [36] > 100 µM | [37] 96.6 µM | [38] > 100 µM | [39] 29.7 µM | [40] 8.02 µM | [41] 15.3 µM | [42] 12.2 µM | [43] 63.4 µM | [44] 23.7 µM | [45] 17.1 µM | [46] 6.75 µM | [47] 26.8 µM | [48] 21.1 µM | [49] 22.8 µM | [50] 17.4 µM | [51] 21.8 µM | [52] > 100 µM | [53] 21.1 µM | [54] 21.8 µM | [55] 12.8 µM | [56] 41.2 µM | [57] 16.2 µM | [58] 6.76 µM
16.6 µM: [2]
active: [11] 0.596 µM

Cc1nc(O)nc2nc3ccc(Cl)cc3c(NCCNCCO)c12
17.9 µM: [2]
inactive: [1] 7.53 µM | [3] 12.4 µM | [4] 13.1 µM | [5] 12.5 µM | [6] 20.3 µM | [7] 8.05 µM | [8] 3.21 µM | [9] 8.99 µM | [10] 7.16 µM | [11] 11.4 µM | [12] 9.06 µM | [13] 15.2 µM | [14] 13.7 µM | [15] 12 µM | [16] 90.4 µM | [17] 14.6 µM | [18] 8.75 µM | [19] 11.4 µM | [20] 13.5 µM | [21] 5.85 µM | [22] 7.18 µM | [23] 17.5 µM | [24] 12.5 µM | [25] 8.73 µM | [26] 13.6 µM | [27] 8.07 µM | [28] 13.2 µM | [29] 12.3 µM | [30] 13.6 µM | [31] 10.3 µM | [59] 42.9 µM | [32] 18.7 µM | [33] 12.2 µM | [34] 10.8 µM | [35] 19.4 µM | [36] 11.4 µM | [38] 17.4 µM | [39] 10.3 µM | [40] 9.27 µM | [41] 10.1 µM | [42] 6.87 µM | [43] 9.46 µM | [44] 8.77 µM | [45] 14.9 µM | [46] 8.83 µM | [47] 12.3 µM | [48] 12.4 µM | [49] 14.3 µM | [50] 13 µM | [51] 12.8 µM | [52] 16 µM | [53] 16.3 µM | [54] 12.1 µM | [55] 8.59 µM | [56] 8.65 µM | [57] 16.7 µM | [58] 11.7 µM

Nc1ccc(Oc2ccc(C34CC5CC(C3)CC(c3ccc(Oc6ccc(N)c(O)c6)cc3)(C5)C4)cc2)cc1O
inactive: [1] 2.48 µM | [3] 2.24 µM | [4] 3.1 µM | [5] 1.75 µM | [6] 7.66 µM | [7] 3.47 µM | [8] 1.54 µM | [9] 1.52 µM | [10] 2.13 µM | [11] 1.98 µM | [12] 1.52 µM | [13] 1.85 µM | [14] 1.75 µM | [15] 2.25 µM | [16] 2.12 µM | [17] 1.41 µM | [18] 4.36 µM | [19] 3.1 µM | [20] 2.02 µM | [21] 1.39 µM | [22] 2.45 µM | [23] 2.48 µM | [24] 2.03 µM | [25] 1.36 µM | [26] 2.49 µM | [28] 2.05 µM | [29] 1.5 µM | [30] 1.47 µM | [31] 1.76 µM | [59] 2.54 µM | [32] 3.3 µM | [33] 1.93 µM | [34] 1.93 µM | [35] 2.32 µM | [36] 1.72 µM | [38] 1.64 µM | [39] 2.05 µM | [41] 1.35 µM | [42] 2.89 µM | [43] 1.7 µM | [44] 1.79 µM | [45] 2.07 µM | [46] 1.69 µM | [47] 1.61 µM | [48] 1.97 µM | [49] 1.72 µM | [50] 1.89 µM | [51] 1.95 µM | [52] 1.71 µM | [53] 2.31 µM | [54] 1.63 µM | [55] 3.3 µM | [56] 1.77 µM | [58] 1.57 µM
active: [27] 0.424 µM | [57] 0.993 µM
1.77 µM: [2]

CCOC(=O)Oc1cc2c(ccn2C)c2c1c1ccccc1n2C(=O)OCC
> 100 µM: [2]
inactive: [1] > 100 µM | [3] > 100 µM | [4] > 100 µM | [5] > 100 µM | [6] > 100 µM | [7] > 100 µM | [8] > 100 µM | [9] > 100 µM | [10] > 100 µM | [11] > 100 µM | [13] 76.7 µM | [14] > 100 µM | [15] > 100 µM | [17] > 100 µM | [18] > 100 µM | [19] > 100 µM | [20] > 100 µM | [21] > 100 µM | [22] > 100 µM | [23] > 100 µM | [24] > 100 µM | [25] > 100 µM | [26] > 100 µM | [27] > 100 µM | [28] > 100 µM | [29] > 100 µM | [31] > 100 µM | [59] > 100 µM | [32] > 100 µM | [33] > 100 µM | [34] > 100 µM | [35] > 100 µM | [36] > 100 µM | [37] > 100 µM | [38] > 100 µM | [39] > 100 µM | [40] > 100 µM | [41] > 100 µM | [42] > 100 µM | [43] > 100 µM | [44] > 100 µM | [45] > 100 µM | [46] > 100 µM | [47] > 100 µM | [48] > 100 µM | [49] > 100 µM | [50] > 100 µM | [51] > 100 µM | [52] > 100 µM | [53] > 100 µM | [54] > 100 µM | [55] > 100 µM | [56] > 100 µM | [57] > 100 µM | [58] > 100 µM
